Values of other authors as cited in publication PMC9851200, “Multiparameter phenotypic screening for endogenous TFEB and TFE3 translocation identifies novel chemical series modulating lysosome function” (Autophagy, 2022).

Tests used:
Set-up in all cases: method as in original PKIS2 published data
[1] = biological target: kinases (KINOMEscan panel) (Homo sapiens, UniProt Q86Z02); settings: HIPK1; Published KINOMEscan; ref original PKIS2 published data; cited from earlier work
[2] = biological target: kinases (KINOMEscan panel) (Homo sapiens, UniProt P10721); settings: Published KINOMEscan, ref original PKIS2 published data, cited from earlier work
kinases (KINOMEscan panel) (Homo sapiens, UniProt P10721), sequence (P10721 26-976): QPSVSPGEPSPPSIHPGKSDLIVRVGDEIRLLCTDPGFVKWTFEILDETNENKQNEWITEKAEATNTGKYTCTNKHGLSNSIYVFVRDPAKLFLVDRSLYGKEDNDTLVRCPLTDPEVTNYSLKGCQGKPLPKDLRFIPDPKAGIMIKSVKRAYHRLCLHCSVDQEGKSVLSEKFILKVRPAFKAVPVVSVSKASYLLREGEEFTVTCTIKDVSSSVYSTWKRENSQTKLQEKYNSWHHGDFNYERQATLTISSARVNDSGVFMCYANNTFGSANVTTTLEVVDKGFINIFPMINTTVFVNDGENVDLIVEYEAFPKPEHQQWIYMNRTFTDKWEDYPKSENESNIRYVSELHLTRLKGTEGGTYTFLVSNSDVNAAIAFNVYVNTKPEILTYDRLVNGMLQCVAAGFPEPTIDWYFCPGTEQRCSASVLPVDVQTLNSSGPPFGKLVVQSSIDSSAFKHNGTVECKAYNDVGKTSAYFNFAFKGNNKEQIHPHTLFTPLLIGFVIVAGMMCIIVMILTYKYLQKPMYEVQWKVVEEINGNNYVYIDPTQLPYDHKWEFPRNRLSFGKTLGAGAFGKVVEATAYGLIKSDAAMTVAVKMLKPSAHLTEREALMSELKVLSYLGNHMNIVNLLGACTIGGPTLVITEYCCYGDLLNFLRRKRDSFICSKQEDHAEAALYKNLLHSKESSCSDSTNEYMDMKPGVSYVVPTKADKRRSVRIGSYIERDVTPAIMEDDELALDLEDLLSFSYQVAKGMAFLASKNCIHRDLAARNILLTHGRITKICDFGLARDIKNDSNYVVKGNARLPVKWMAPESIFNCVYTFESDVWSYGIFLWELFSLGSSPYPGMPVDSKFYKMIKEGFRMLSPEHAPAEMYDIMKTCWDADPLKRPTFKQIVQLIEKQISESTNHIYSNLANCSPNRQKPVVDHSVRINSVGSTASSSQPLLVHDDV

[3] = biological target: kinases (KINOMEscan panel) (Homo sapiens, UniProt Q9HAZ1); settings: kinase CLK4; Published KINOMEscan; ref original PKIS2 published data; cited from earlier work
kinases (KINOMEscan panel) (Homo sapiens, UniProt Q9HAZ1), sequence (Q9HAZ1 whole entry): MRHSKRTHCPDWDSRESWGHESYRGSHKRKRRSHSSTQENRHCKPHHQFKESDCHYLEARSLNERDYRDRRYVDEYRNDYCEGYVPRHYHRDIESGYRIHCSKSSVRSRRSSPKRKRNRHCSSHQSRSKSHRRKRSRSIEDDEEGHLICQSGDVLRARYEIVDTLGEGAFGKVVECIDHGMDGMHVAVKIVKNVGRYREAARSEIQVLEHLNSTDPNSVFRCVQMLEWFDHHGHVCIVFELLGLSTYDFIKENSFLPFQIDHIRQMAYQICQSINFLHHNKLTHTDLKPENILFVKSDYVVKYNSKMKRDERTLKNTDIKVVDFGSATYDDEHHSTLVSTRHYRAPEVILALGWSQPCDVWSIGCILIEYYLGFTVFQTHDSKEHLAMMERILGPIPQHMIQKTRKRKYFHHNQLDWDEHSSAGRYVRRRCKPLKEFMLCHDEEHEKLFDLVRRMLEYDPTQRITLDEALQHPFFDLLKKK

[4] = biological target: T1, kinases (KINOMEscan panel) (Homo sapiens, UniProt Q59H18); settings: kinase TNNI3K; Published KINOMEscan; ref original PKIS2 published data; cited from earlier work
T1 sequence (Q59H18 1-835): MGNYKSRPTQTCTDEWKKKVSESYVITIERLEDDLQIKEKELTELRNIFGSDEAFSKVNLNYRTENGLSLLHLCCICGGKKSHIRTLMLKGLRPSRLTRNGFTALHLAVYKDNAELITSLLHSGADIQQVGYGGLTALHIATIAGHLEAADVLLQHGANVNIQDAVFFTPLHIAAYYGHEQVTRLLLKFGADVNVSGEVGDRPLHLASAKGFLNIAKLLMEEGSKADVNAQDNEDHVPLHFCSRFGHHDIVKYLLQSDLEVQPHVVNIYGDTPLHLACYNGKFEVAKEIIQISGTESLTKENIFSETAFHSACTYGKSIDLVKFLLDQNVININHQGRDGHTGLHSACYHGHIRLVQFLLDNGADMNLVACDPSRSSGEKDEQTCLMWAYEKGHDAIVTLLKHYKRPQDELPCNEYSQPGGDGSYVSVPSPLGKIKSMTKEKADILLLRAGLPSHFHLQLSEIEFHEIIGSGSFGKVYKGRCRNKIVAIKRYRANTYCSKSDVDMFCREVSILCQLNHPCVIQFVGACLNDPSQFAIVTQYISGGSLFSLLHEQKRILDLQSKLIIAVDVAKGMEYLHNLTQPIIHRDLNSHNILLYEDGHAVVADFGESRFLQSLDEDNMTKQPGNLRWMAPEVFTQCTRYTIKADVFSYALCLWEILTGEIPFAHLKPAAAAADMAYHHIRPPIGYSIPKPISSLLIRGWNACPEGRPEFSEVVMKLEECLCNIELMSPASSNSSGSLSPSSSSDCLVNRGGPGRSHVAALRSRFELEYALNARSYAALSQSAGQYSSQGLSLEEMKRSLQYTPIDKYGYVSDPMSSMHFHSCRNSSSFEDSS

[5] = biological target: T2, kinases (KINOMEscan panel) (Homo sapiens, UniProt Q6PHR2); settings: kinase ULK3; Published KINOMEscan; ref original PKIS2 published data; cited from earlier work
T2 sequence (Q6PHR2 1-472): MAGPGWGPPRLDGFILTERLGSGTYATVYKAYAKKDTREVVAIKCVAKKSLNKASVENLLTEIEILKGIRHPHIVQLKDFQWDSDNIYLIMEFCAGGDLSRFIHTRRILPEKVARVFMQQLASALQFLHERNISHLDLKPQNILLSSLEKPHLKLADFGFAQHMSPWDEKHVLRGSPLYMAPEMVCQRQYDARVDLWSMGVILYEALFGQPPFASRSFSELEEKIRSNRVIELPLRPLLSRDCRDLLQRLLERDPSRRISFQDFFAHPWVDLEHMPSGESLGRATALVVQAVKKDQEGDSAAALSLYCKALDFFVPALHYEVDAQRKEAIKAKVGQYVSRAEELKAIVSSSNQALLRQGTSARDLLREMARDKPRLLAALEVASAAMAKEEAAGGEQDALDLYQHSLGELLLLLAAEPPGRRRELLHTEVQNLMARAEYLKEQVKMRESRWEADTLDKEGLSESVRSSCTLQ

[6] = biological target: T3, kinases (KINOMEscan panel) (Homo sapiens, UniProt Q13470); settings: TNK1; Published KINOMEscan; ref original PKIS2 published data; cited from earlier work
T3 sequence (Q13470 1-666): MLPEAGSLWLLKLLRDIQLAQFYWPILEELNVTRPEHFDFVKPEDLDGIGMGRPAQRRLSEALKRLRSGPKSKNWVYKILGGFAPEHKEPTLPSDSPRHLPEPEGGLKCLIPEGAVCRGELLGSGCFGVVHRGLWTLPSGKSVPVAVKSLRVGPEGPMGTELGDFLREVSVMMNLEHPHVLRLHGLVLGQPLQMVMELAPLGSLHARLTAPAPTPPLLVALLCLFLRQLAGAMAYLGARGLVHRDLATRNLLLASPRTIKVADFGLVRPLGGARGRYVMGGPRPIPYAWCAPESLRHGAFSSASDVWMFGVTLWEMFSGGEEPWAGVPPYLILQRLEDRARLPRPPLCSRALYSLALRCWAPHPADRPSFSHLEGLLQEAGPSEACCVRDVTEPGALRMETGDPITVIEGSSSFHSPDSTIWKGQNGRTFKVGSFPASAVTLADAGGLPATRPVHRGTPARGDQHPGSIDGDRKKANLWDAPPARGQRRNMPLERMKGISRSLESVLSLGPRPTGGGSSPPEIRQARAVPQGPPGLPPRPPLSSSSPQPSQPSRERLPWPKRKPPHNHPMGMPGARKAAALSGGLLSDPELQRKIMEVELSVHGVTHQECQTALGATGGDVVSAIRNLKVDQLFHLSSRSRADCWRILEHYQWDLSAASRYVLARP

kinases (KINOMEscan panel) (Homo sapiens, UniProt Q86Z02), sequence (Q86Z02 whole entry): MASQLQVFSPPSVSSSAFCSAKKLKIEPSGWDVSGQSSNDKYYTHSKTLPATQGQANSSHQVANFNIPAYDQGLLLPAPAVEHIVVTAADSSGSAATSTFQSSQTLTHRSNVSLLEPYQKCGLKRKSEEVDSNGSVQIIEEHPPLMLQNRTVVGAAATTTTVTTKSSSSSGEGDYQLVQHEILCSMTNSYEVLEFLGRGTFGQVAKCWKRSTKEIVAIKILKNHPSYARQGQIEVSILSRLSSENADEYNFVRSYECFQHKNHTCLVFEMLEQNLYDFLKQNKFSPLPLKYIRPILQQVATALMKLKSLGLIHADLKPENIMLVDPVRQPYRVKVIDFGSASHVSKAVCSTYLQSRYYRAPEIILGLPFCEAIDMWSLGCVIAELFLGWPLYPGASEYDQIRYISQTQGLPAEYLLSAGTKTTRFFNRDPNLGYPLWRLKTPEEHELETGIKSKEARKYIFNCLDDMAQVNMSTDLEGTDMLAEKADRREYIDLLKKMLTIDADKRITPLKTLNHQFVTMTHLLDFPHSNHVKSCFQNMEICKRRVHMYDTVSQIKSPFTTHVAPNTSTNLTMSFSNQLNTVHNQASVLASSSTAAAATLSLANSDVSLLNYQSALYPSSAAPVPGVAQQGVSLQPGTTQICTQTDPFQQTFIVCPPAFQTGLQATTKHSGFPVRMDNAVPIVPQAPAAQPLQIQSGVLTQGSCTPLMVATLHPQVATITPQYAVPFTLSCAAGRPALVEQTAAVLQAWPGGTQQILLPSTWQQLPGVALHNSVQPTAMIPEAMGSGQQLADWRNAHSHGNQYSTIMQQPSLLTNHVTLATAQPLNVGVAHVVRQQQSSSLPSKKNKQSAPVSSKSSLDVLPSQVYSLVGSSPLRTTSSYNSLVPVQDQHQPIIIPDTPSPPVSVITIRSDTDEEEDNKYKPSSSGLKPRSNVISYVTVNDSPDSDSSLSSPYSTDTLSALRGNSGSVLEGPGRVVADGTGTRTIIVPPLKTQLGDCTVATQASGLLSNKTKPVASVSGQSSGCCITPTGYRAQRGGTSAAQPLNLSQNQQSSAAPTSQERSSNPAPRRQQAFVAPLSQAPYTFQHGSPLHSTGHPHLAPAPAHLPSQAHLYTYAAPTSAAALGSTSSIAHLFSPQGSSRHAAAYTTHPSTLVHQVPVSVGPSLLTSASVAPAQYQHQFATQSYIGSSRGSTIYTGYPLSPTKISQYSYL

Cc1cccc(-c2nc(Nc3ccncc3)c3ccccc3n2)n1 [NK215]
KINOMEscan HIPK1 [1]: 41
KINOMEscan KIT-autoinhibited ([2]; KIT-autoinhibited): 0
KINOMEscan KIT ([2]; KIT): 10
KINOMEscan CLK4 [3]: 0
KINOMEscan TNNI3K [4]: 20
KINOMEscan ULK3 [5]: 8
KINOMEscan TNK1 [6]: 39
